Where two headings read alike, the source gives them in different places.
What was measured:
[1] = tested on: Aurantiochytrium sp. HS399; conditions: for Cell Dry Weight of Aurantiochytrium: 2 g/L Na Acetate
Description: This experiment was conducted to determine the effect of different culture pH levels on the growth of Aurantiochytrium sp. HS399. Duplicate 100 ml flasks of axenic cultures of Aurantiochytrium were adjusted to initial pH levels of 4, 5, 6, 7, and 8. The culture pH was adjusted using either hydrochloric acid (HCl) or potassium hydroxide (KOH). […] Samples of the flask culture were taken initially and every other day over a five-day period (120 hours).

[2] = tested on: Chlorella sp. HS26
Description: Cultures of Chlorella sp. […] 100 mL volume cultures were prepared in 250 mL flasks, and cultured at a pH of 7.5, temperature of 25° C., a shaking frequency of 100 rpm, and a light intensity of 100 μM photon/m^2 s for 7 days (168 hours).

[3] = tested on: Aurantiochytrium sp. HS399
Description: Cultures of Aurantiochytrium sp. […] 100 mL volume cultures were prepared in 250 mL flasks, and cultured at a pH of 7.0, temperature of 27° C., a shaking frequency of 180 rpm, in the dark for 5 days (120 hours). The cultures were inoculated at the same cell density.

[4] = tested on: Chlorella sp. HS26; conditions: for Cell Dry Weight of Chlorella: 2.4 g/L
Description: This experiment was conducted to determine the effect of different culture medium pH levels on the growth of Chlorella sp. HS26 at a constant culture medium acetate concentration. Duplicate 100 ml flasks of axenic cultures of Chlorella were adjusted to initial pH levels of 2.5, 3.5, 4.5, 5.5, 6.5, 7.0, 7.5, 8.5, 9.5, and 10.5. The culture pH was adjusted using either hydrochloric acid (HCl) or sodium hydroxide (NaOH). […] Samples of the flask culture were taken initially and every other day over a six day period (144 hours).

CC(=O)[O-].[Na+] [Sodium Acetate, sodium acetate]
Cell Dry Weight of Aurantiochytrium ([1]; pH 4, 0 h): 0.28 g/L
Cell Dry Weight of Aurantiochytrium ([1]; pH 4, 24 h): 1.1 g/L
Cell Dry Weight of Aurantiochytrium ([1]; pH 4, 48 h): 0.79 g/L
Cell Dry Weight of Aurantiochytrium ([1]; pH 4, 72 h): 0.51 g/L
Cell Dry Weight of Aurantiochytrium ([1]; pH 5, 0 h): 0.25 g/L
Cell Dry Weight of Aurantiochytrium ([1]; pH 5, 24 h): 5.15 + g/L
Cell Dry Weight of Aurantiochytrium ([1]; pH 5, 48 h): 15.2 g/L
Cell Dry Weight of Aurantiochytrium ([1]; pH 5, 72 h): 19.4 g/L
Cell Dry Weight of Aurantiochytrium ([1]; pH 6, 0 h): 0.18 g/L
Cell Dry Weight of Aurantiochytrium ([1]; pH 6, 24 h): 5.1 g/L
Cell Dry Weight of Aurantiochytrium ([1]; pH 6, 48 h): 11.55 g/L
Cell Dry Weight of Aurantiochytrium ([1]; pH 6, 72 h): 16 g/L
Cell Dry Weight of Aurantiochytrium ([1]; pH 7, 0 h): 0.3 g/L
Cell Dry Weight of Aurantiochytrium ([1]; pH 7, 24 h): 12.25 g/L
Cell Dry Weight of Aurantiochytrium ([1]; pH 7, 48 h): 10.8 g/L
Cell Dry Weight of Aurantiochytrium ([1]; pH 7, 72 h): 15.7 g/L
Cell Dry Weight of Aurantiochytrium ([1]; pH 8, 0 h): 0.25 g/L
Cell Dry Weight of Aurantiochytrium ([1]; pH 8, 24 h): 9.1 g/L
Cell Dry Weight of Aurantiochytrium ([1]; pH 8, 48 h): 8.95 g/L
Cell Dry Weight of Aurantiochytrium ([1]; pH 8, 72 h): 12.6 g/L
cell dry weight over time ([1]; 2 g/L sodium acetate, pH of 4): did not increase over time
growth ([2]; 2.5 g/L sodium acetate): 0.620 g/L day
time to reach exponential phase ([2]; 2.5 g/L sodium acetate): 48 h
growth ([2]; 5 g/L sodium acetate): 0.065 g/L day
Chlorella dry weights ([2]; sodium acetate 2.5 g/L, 0 h): 0.12 g/L
Chlorella dry weights ([2]; sodium acetate 2.5 g/L, 24 h): 0.23 g/L
Chlorella dry weights ([2]; sodium acetate 2.5 g/L, 48 h): 0.85 g/L
Chlorella dry weights ([2]; sodium acetate 2.5 g/L, 72 h): 1.10 g/L
Chlorella dry weights ([2]; sodium acetate 2.5 g/L, 144 h): 2.72 g/L
Chlorella dry weights ([2]; sodium acetate 2.5 g/L, 168 h): 3.23 g/L
Chlorella dry weights ([2]; sodium acetate 5 g/L, 0 h): 0.12 g/L
Chlorella dry weights ([2]; sodium acetate 5 g/L, 24 h): 0.19 g/L
Chlorella dry weights ([2]; sodium acetate 5 g/L, 48 h): 0.25 g/L
Chlorella dry weights ([2]; sodium acetate 5 g/L, 72 h): 0.55 g/L
Chlorella dry weights ([2]; sodium acetate 5 g/L, 144 h): 1.89 g/L
Chlorella dry weights ([2]; sodium acetate 5 g/L, 168 h): 2.41 g/L
Chlorella dry weights ([2]; sodium acetate 10 g/L, 0 h): 0.12 g/L
Chlorella dry weights ([2]; sodium acetate 10 g/L, 24 h): 0.13 g/L
Chlorella dry weights ([2]; sodium acetate 10 g/L, 48 h): 0.16 g/L
Chlorella dry weights ([2]; sodium acetate 10 g/L, 72 h): 0.11 g/L
Chlorella dry weights ([2]; sodium acetate 10 g/L, 144 h): 0.09 g/L
Chlorella dry weights ([2]; sodium acetate 10 g/L, 168 h): 0.00 g/L
Chlorella dry weights ([2]; sodium acetate 20 g/L, 0 h): 0.12 g/L
Chlorella dry weights ([2]; sodium acetate 20 g/L, 24 h): 0.16 g/L
Chlorella dry weights ([2]; sodium acetate 20 g/L, 48 h): 0.13 g/L
Chlorella dry weights ([2]; sodium acetate 20 g/L, 72 h): 0.12 g/L
Chlorella dry weights ([2]; sodium acetate 20 g/L, 144 h): 0.07 g/L
Chlorella dry weights ([2]; sodium acetate 20 g/L, 168 h): 0.00 g/L
Chlorella dry weights ([2]; sodium acetate 30 g/L, 0 h): 0.12 g/L
Chlorella dry weights ([2]; sodium acetate 30 g/L, 24 h): 0.14 g/L
Chlorella dry weights ([2]; sodium acetate 30 g/L, 48 h): 0.11 g/L
Chlorella dry weights ([2]; sodium acetate 30 g/L, 72 h): 0.09 g/L
Chlorella dry weights ([2]; sodium acetate 30 g/L, 144 h): 0.08 g/L
Chlorella dry weights ([2]; sodium acetate 30 g/L, 168 h): 0.00 g/L
Chlorella dry weights ([2]; sodium acetate 40 g/L, 0 h): 0.12 g/L
Chlorella dry weights ([2]; sodium acetate 40 g/L, 24 h): 0.11 g/L
Chlorella dry weights ([2]; sodium acetate 40 g/L, 48 h): 0.09 g/L
Chlorella dry weights ([2]; sodium acetate 40 g/L, 72 h): 0.10 g/L
Chlorella dry weights ([2]; sodium acetate 40 g/L, 144 h): 0.09 g/L
Chlorella dry weights ([2]; sodium acetate 40 g/L, 168 h): 0.00 g/L
acetate concentration tolerance ([2]; sodium acetate in the culture, pH 7.5): approximately 7.5 g/L
growth ([3]; concentrations of sodium acetate below 100 g/L): grew well
Cell Dry Weight of Aurantiochytrium ([3]; sodium acetate 5 g/L, 0 h): 2.7 g/L
Cell Dry Weight of Aurantiochytrium ([3]; sodium acetate 5 g/L, 24 h): 8.01 g/L
Cell Dry Weight of Aurantiochytrium ([3]; sodium acetate 5 g/L, 40 h): 8.13 g/L
Cell Dry Weight of Aurantiochytrium ([3]; sodium acetate 5 g/L, 72 h): 7.49 g/L
Cell Dry Weight of Aurantiochytrium ([3]; sodium acetate 5 g/L, 96 h): 7.38 g/L
Cell Dry Weight of Aurantiochytrium ([3]; sodium acetate 5 g/L, 120 h): 7.6 g/L
Cell Dry Weight of Aurantiochytrium ([3]; sodium acetate 10 g/L, 0 h): 2.7 g/L
Cell Dry Weight of Aurantiochytrium ([3]; sodium acetate 10 g/L, 24 h): 8.29 g/L
Cell Dry Weight of Aurantiochytrium ([3]; sodium acetate 10 g/L, 40 h): 9.69 g/L
Cell Dry Weight of Aurantiochytrium ([3]; sodium acetate 10 g/L, 72 h): 10.35 g/L
Cell Dry Weight of Aurantiochytrium ([3]; sodium acetate 10 g/L, 96 h): 10 g/L
Cell Dry Weight of Aurantiochytrium ([3]; sodium acetate 10 g/L, 120 h): 10.9 g/L
Cell Dry Weight of Aurantiochytrium ([3]; sodium acetate 20 g/L, 0 h): 2.7 g/L
Cell Dry Weight of Aurantiochytrium ([3]; sodium acetate 20 g/L, 24 h): 7.35 g/L
Cell Dry Weight of Aurantiochytrium ([3]; sodium acetate 20 g/L, 40 h): 10.45 g/L
Cell Dry Weight of Aurantiochytrium ([3]; sodium acetate 20 g/L, 72 h): 13.7 g/L
Cell Dry Weight of Aurantiochytrium ([3]; sodium acetate 20 g/L, 96 h): 13.11 g/L
Cell Dry Weight of Aurantiochytrium ([3]; sodium acetate 20 g/L, 120 h): 13.55 g/L
Cell Dry Weight of Aurantiochytrium ([3]; sodium acetate 40 g/L, 0 h): 2.7 g/L
Cell Dry Weight of Aurantiochytrium ([3]; sodium acetate 40 g/L, 24 h): 7.06 g/L
Cell Dry Weight of Aurantiochytrium ([3]; sodium acetate 40 g/L, 40 h): 11.84 g/L
Cell Dry Weight of Aurantiochytrium ([3]; sodium acetate 40 g/L, 72 h): 15.78 g/L
Cell Dry Weight of Aurantiochytrium ([3]; sodium acetate 40 g/L, 96 h): 18.9 g/L
Cell Dry Weight of Aurantiochytrium ([3]; sodium acetate 40 g/L, 120 h): 19.65 g/L
Cell Dry Weight of Aurantiochytrium ([3]; sodium acetate 100 g/L, 0 h): 2.7 g/L
Cell Dry Weight of Aurantiochytrium ([3]; sodium acetate 100 g/L, 24 h): 1.7 g/L
Cell Dry Weight of Aurantiochytrium ([3]; sodium acetate 100 g/L, 40 h): 0.7 g/L
acetate concentration tolerance ([3]; sodium acetate in the culture, pH 7.0): around 100 g/L
cell dry weight over time ([4]; 2.4 g/L sodium acetate, pH of 5.5 or lower): did not increase over time
Cell Dry Weight of Chlorella ([4]; initial pH 2.5, 0 h): 0.6 g/L
Cell Dry Weight of Chlorella ([4]; initial pH 2.5, 24 h): 0.5 g/L
Cell Dry Weight of Chlorella ([4]; initial pH 2.5, 48 h): 0.5 g/L
Cell Dry Weight of Chlorella ([4]; initial pH 3.5, 0 h): 0.6 g/L
Cell Dry Weight of Chlorella ([4]; initial pH 3.5, 24 h): 0.5 g/L
Cell Dry Weight of Chlorella ([4]; initial pH 3.5, 48 h): 0.5 g/L
Cell Dry Weight of Chlorella ([4]; initial pH 4.5, 0 h): 0.6 g/L
Cell Dry Weight of Chlorella ([4]; initial pH 4.5, 24 h): 0.5 g/L
Cell Dry Weight of Chlorella ([4]; initial pH 4.5, 48 h): 0.4 g/L
Cell Dry Weight of Chlorella ([4]; initial pH 5.5, 0 h): 0.6 g/L
Cell Dry Weight of Chlorella ([4]; initial pH 5.5, 24 h): 0.6 g/L
Cell Dry Weight of Chlorella ([4]; initial pH 5.5, 48 h): 0.6 g/L
Cell Dry Weight of Chlorella ([4]; initial pH 5.5, 96 h): 0.4 g/L
Cell Dry Weight of Chlorella ([4]; initial pH 6.5, 0 h): 0.6 g/L
Cell Dry Weight of Chlorella ([4]; initial pH 6.5, 24 h): 0.8 g/L
Cell Dry Weight of Chlorella ([4]; initial pH 6.5, 48 h): 1.8 g/L
Cell Dry Weight of Chlorella ([4]; initial pH 6.5, 96 h): 4.3 g/L
Cell Dry Weight of Chlorella ([4]; initial pH 6.5, 144 h): 6.0 g/L
Cell Dry Weight of Chlorella ([4]; initial pH 7.5, 0 h): 0.6 g/L
Cell Dry Weight of Chlorella ([4]; initial pH 7.5, 24 h): 0.6 g/L
Cell Dry Weight of Chlorella ([4]; initial pH 7.5, 48 h): 1.7 g/L
Cell Dry Weight of Chlorella ([4]; initial pH 7.5, 96 h): 4.4 g/L
Cell Dry Weight of Chlorella ([4]; initial pH 7.5, 144 h): 6.0 g/L
Cell Dry Weight of Chlorella ([4]; initial pH 8.5, 0 h): 0.6 g/L
Cell Dry Weight of Chlorella ([4]; initial pH 8.5, 24 h): 0.8 g/L
Cell Dry Weight of Chlorella ([4]; initial pH 8.5, 48 h): 2.4 g/L
Cell Dry Weight of Chlorella ([4]; initial pH 8.5, 96 h): 4.2 g/L
Cell Dry Weight of Chlorella ([4]; initial pH 8.5, 144 h): 6.0 g/L
Cell Dry Weight of Chlorella ([4]; initial pH 9.5, 0 h): 0.6 g/L
Cell Dry Weight of Chlorella ([4]; initial pH 9.5, 24 h): 0.8 g/L
Cell Dry Weight of Chlorella ([4]; initial pH 9.5, 48 h): 1.2 g/L
Cell Dry Weight of Chlorella ([4]; initial pH 9.5, 96 h): 4.3 g/L
Cell Dry Weight of Chlorella ([4]; initial pH 9.5, 144 h): 6.1 g/L
Cell Dry Weight of Chlorella ([4]; initial pH 10.5, 0 h): 0.6 g/L
Cell Dry Weight of Chlorella ([4]; initial pH 10.5, 24 h): 0.9 g/L
Cell Dry Weight of Chlorella ([4]; initial pH 10.5, 48 h): 1.4 g/L
Cell Dry Weight of Chlorella ([4]; initial pH 10.5, 96 h): 4.3 g/L
Cell Dry Weight of Chlorella ([4]; initial pH 10.5, 144 h): 6.1 g/L

From patent US20210284952A1, “METHODS OF APPLYING ACETATE TOXICITY AND INDUCING ACETATE UPTAKE IN MICROALGAE CULTURES” (HELIAE DEVELOPMENT LLC, priority 2016, published 2021)
